According to patent US20250120988A1, “SMALL MOLECULE COMPOUND FOR TREATING ISCHEMIC STROKE, ITS PREPARATION METHOD, AND APPLICATION” (SHANGHAI SIXTH PEOPLE'S HOSPITAL, priority 2023, published 2025):
Read-outs that look alike come from different tables or passages of the source.

Assay: Pharmacokinetics of single intraperitoneal injection in mice (LC-MS/MS, plasma and brain tissue)
Type: in vivo, male C57BL/6J mice
Settings: i.p. 30 mg/kg; for MRT last: read-out: MRT(0-t); for MRT inf: read-out: MRT(0-∞)
Description: LC-MS/MS method was used to measure the concentration of LK-2 in plasma and brain tissue. LK-2 was dissolved in 0.9% saline to a concentration of 1 mg/ml. Blood samples were collected at 5 min, 15 min, 30 min, 1.0 h, 2.0 h, and 4.0 h time points into EDTA-coated tubes, then centrifuged at 2,000 g for 15 min to generate plasma samples. Brain tissue samples were collected after perfusion with saline through the left ventricle, and the brain tissue were diluted and homogenized with 5 volumes (w:v) of 0.9% NaCl. LC-MS/MS method for quantification of LK-2 in plasma and brain tissue samples was developed using LC-MS/MS-T_API4000 instrument. The general sample processing procedure is as follows. • 1) 30 μl plasma samples were divided, standard samples were calibrated with quality control, and single blank and double blank samples were added into 1.5 ml tubes, respectively. 40 μl brain tissue homogenate were added to each well of a 96-well plate, respectively, and standard samples were calibrated with quality control, single blank and double blank samples were aliquoted. • 2) Each sample (excluding double blanks) was mixed with 150 μl (plasma samples) or 200 μl (brain tissue homogenate) of internal standard solution [a 6-in-1 internal standard solution (100 ng/ml each of labetalol, tolbutamide, verapamil, dexamethasone, glipizide, and celecoxib dissolved in methanol) and 40 mM dibutyl acetic acid] to terminate the reaction (double blank samples were terminated with 40 mM dibutyl acetic acid in methanol). The mixture was then thoroughly vortexed for at least 15 s and centrifuged at 12000 g (plasma samples) or 3220 g (brain homogenate) at 4° C. for 15 minutes. • 3) 65 μl of the supernatant was evenly transferred into a 96-well plate and centrifuge at 3220 g, 4° C. for 5 minutes. All procedures were performed on wet ice. All the supernatant was directly injected for LC-MS/MS analysis. The chromatographic column was ACQUITY UPLC BEHC18 with 2.1×100 mm, 1.7 μm. The column temperature was at 40° C. and the flow rate was 0.4 mL/min. The mobile phase A was 0.001% NH3·H2O, 0.18 mM dibutylamine acetate aqueous solution, and mobile phase B was 10 mM N,O-dimethylhydroxylamine and 3 mM NH4OAc solution, acetonitrile/aqueous solution (v:v, 50:50). Standard curves were prepared by spiking compounds into control plasma and brain to determine drug concentrations. Pharmacokinetic parameters and average concentrations at each time point were calculated using DAS 2.0 software through non-compartmental analysis (NCA), as shown in Table 1.

[1] = male, C57BL/6J, mouse, ip, Brain tissue
[2] = male, C57BL/6J, mouse, ip, Plasma

For O=C(O)C1CN(C(c2ccccc2)P(=O)(O)O)CCN1 (stereo not shown) [LK-2], which CL (Brain tissue) is on record?
The CL was 634.03 ± 53.28 mL/min/kg.

And the V (Brain tissue)?
The V was 124.755 ± 15.127 L/kg.

And the CL (Plasma)?
The CL was 7.13 ± 0.317 mL/min/kg.

And the V (Plasma)?
Its V is 0.356 ± 0.021 L/kg.

And the Kp (male, C57BL/6J, mouse, brain/plasma, ip, read-out: Brain/plasma AUC ratio)?
The Kp was 0.0127 ± 0.0006.

What about the AUC(0-inf) [1] of the same compound?
The AUC(0-inf) was 793 ± 68 ng·h/mL.

And the AUC(0-t) [1]?
Its AUC(0-t) is 523 ± 27.9 ng·h/mL.

And the Cmax [1]?
The Cmax was 236 ± 31.9 ng/mL.

And the Tmax [1]?
Its Tmax is 30 min.

And the half-life [1]?
Its half-life is 138 ± 26.5 min.

What about the MRT last [1] of the same compound?
The MRT last was 106 ± 4.68 min.

And the MRT inf [1]?
Its MRT inf is 218 ± 36.7 min.

And the AUC(0-inf) [2]?
The AUC(0-inf) was 70300 ± 3130 ng·h/mL.

What about the AUC(0-t) [2] of the same compound?
Its AUC(0-t) is 69800 ± 3120 ng·h/mL.

And the Cmax [2]?
The Cmax was 92700 ± 8310 ng/mL.

What about the Tmax [2] of the same compound?
The Tmax was 30 min.

And the half-life [2]?
Its half-life is 34.6 ± 0.9 min.

What about the MRT last [2] of the same compound?
The MRT last was 41.6 ± 1.14 min.

What about the MRT inf [2] of the same compound?
Its MRT inf is 43.3 ± 1.08 min.
